The values below come from patent US7238775B2, “Receptor(SSTR4)-selective somatostatin analogs” (The Salk Institute for Biological Studies, priority 2002, dated 2007).

Assay in all cases: Displacement of 125I-[Leu8,D-Trp22,Tyr25]SRIF-28 from cloned receptor, membrane pellet autoradiography
What all share (format): binding

For one assay, the target named is T1, hSSTR1 (Homo sapiens, UniProt P30872).
T1 construct: expressed in transfected cells; host or cells: CHO-K1 cells and CCL39 cells
The settings on record: for IC50: inhibition of 125I-SRIF-28 radioligand binding, cloned human receptor. Here is the method: (§1) In vitro Bioassay: The effects of the various somatostatin analogs are tested in vitro for their ability to bind to isolated cloned receptors expressed on CHO-K1 cells and CCL39 cells. CHO-K1 cells are grown in Ham's F-12 medium, and CCL39 cells are grown in Dulbecco's modified Eagle's medium/Ham's F-12(1:1) mix, supplemented with 10% fetal bovine serum, 100 U/ml penicillin and 100 μg/ml streptomycin, in humidified air containing 5% CO2 at 37° C.
(§2) Cells are washed twice with and scraped into ice-cold 0.05 M Tris-HCl (pH 7.4), collected by centrifugation, and homogenized using a rotor/stator/system in the same buffer. After centrifugation at 120 g for 5 min at 4° C., the supernatant is collected and centrifuged again at 48,000 g for 30 min at 4° C. The resulting pellet is resuspended in ice-cold Tris buffer, transferred into a microfuge tube, and centrifuged at 20,000 g for 15 min at 4° C. After withdrawal of the supernatant, the membrane pellet is stored at −80° C.
Receptor autoradiography is performed on 20 μm thick cryostat sections of the membrane pellets, mounted on microscope slides, and then stored at −20° C. […] […] […] IC50 values are calculated after quantification of the data using a computer-assisted image processing system as known in this art.
(§3) The numbers in parentheses indicate the number of times the particular binding test was carried out.

The target in another assay is T2, hSSTR5 (Homo sapiens, UniProt P35346).
T2 construct: expressed in transfected cells; host or cells: CHO-K1 cells and CCL39 cells
Here is the method:
as §1, §2
(§4) Receptor autoradiography is performed on 20 μm thick cryostat sections of the membrane pellets, mounted on microscope slides, and then stored at −20° C. […] Increasing concentrations of the unlabeled peptide are used ranging from 0.1-1000 nM. […] IC50 values are calculated after quantification of the data using a computer-assisted image processing system as known in this art.
as §3

The next assay deals with T3, hSSTR2 (Homo sapiens, UniProt P30874).
T3 construct: expressed in transfected cells; host or cells: CHO-K1 cells and CCL39 cells
Here is the method:
as §1, §2, §4, §3

The next assay has as its target T4, hSSTR4 (Homo sapiens, UniProt P31391).
T4 construct: expressed in transfected cells; host or cells: CHO-K1 cells and CCL39 cells
The settings on record: for IC50: inhibition of 125I-SRIF-28 radioligand binding, cloned human receptor. Here is the method: as §1, §2, §4, §3

Another assay addresses T5, hSSTR3 (Homo sapiens, UniProt P32745).
T5 construct: expressed in transfected cells; host or cells: CHO-K1 cells and CCL39 cells
Here is the method:
as §1, §2, §4, §3

Where [1] appears, read: inhibition of 125I-SRIF-28 radioligand binding, cloned human receptor.

As a reminder, the IC50 is the midpoint of a concentration-inhibition curve. Read a low IC50 as higher potency.

Structures are written as SMILES. Values joined by “and” are separate entries in the source; they are usually repeats but may differ in a detail not shown here. Identical values can stand only once. Numbered stars: 1 amine (or outer) side, 2 acyl side, 3 side chain; on linkers, the order of the positions; unused ones are H or OH. Bridge positions count the residues as written; N and C are the ends. Square brackets hold non-standard residues; d marks the D form. Peptide text beside a SMILES is read from it. X1 = C[C@H](c1ccc2ccccc2c1)[C@H](N[*:1])C(=O)[*:2]; Phe(4-NH2) = Nc1ccc(C[C@H](N)C(=O)O)cc1; 2Nal = N[C@@H](Cc1ccc2ccccc2c1)C(=O)O

T2 sequence (P35346 whole entry): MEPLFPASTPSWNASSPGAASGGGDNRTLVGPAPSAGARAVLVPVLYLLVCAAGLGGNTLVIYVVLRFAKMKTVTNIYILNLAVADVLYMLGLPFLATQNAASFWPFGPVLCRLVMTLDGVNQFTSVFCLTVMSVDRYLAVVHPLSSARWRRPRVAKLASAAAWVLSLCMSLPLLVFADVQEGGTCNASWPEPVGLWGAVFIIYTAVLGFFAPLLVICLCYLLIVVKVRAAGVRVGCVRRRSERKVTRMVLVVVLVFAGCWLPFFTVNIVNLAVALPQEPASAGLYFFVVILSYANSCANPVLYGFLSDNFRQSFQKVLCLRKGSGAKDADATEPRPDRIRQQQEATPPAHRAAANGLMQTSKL
T1 sequence (P30872 whole entry): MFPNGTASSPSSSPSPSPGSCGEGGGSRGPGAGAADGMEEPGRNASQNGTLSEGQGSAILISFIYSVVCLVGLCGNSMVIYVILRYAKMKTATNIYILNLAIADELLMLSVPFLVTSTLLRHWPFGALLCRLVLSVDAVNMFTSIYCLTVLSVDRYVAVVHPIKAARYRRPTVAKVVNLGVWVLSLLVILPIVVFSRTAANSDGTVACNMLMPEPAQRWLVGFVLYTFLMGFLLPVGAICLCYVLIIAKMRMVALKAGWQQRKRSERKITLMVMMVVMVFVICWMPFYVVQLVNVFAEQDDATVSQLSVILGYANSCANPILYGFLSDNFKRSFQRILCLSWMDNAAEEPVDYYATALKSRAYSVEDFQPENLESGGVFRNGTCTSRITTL
T4 sequence (P31391 whole entry): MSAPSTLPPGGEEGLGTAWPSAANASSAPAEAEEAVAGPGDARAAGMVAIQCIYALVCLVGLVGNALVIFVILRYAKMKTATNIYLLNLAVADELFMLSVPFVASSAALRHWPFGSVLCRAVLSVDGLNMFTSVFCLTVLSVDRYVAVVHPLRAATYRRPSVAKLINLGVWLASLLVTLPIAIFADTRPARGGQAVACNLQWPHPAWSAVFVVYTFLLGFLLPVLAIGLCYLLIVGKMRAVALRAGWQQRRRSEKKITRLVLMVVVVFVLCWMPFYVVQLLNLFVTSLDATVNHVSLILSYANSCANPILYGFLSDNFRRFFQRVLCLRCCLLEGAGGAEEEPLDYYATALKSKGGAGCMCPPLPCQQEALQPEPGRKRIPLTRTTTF
T3 sequence (P30874 whole entry): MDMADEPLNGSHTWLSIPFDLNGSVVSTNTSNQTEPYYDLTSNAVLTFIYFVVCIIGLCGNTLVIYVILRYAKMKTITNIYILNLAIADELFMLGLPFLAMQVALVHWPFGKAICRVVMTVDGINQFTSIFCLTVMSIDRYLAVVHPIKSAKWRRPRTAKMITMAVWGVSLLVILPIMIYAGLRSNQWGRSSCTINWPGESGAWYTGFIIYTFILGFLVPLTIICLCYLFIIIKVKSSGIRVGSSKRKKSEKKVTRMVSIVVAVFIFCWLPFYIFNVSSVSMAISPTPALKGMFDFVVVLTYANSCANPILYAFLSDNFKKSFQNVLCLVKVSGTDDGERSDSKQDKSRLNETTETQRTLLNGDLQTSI
T5 sequence (P32745 whole entry): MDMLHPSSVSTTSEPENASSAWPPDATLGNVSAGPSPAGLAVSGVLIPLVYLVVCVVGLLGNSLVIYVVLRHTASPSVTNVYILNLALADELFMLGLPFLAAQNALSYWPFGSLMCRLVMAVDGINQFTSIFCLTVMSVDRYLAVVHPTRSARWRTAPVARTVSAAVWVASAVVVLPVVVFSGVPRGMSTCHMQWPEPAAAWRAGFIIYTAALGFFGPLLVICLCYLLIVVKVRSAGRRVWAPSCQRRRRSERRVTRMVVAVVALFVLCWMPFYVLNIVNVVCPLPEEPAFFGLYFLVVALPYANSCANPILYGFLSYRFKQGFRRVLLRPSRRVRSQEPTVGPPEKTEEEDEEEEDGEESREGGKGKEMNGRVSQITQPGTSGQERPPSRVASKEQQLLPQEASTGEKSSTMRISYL

With `C[C@@H](O)[C@@H]1NC(=O)[C@H](CCCCN)NC(=O)[C@H](Cc2c[nH]c3ccccc23)NC(=O)[C@H](Cc2ccc(N)cc2)NC(=O)[C@H](Cc2ccccc2)NC(=O)[C@@H](N)CSSC[C@@H](C(=O)O)NC(=O)[C@H](Cc2ccccc2)NC1=O` [Peptide No. 1, (cyclo)H-Cys-Phe-4Aph-Trp-Lys-Thr-Phe-Cys-OH], the “effect on binding of the SRIF-28 radioligand to human SSTR1” value on hSSTR1 (at 100 nM) is “minimal effects”. On hSSTR5 (at 100 nM), the “effect on binding of the SRIF-28 radioligand to SSTR5” value is “very minimal effect”. This compound also gave an IC50 at hSSTR5 (setting [1]) of 1000 nM. For the same compound, the “effect on binding of the SRIF-28 radioligand to human SSTR2” value at hSSTR2 (at 100 nM) is on record as “minimal effects”. Moreover, on hSSTR4, the “selectivity in binding to SSTR4 compared with the other 4 receptors (in words)” value (“selectivity in binding to SSTR4” below) was “selectively bound to SSTR4”; the IC50 was ~1.2 nM and 1.2 nM. Also, the “effect on binding of the SRIF-28 radioligand to SSTR3” value at hSSTR3 (at 100 nM) is reported as “very minimal effect”.
As for `C[C@@H](O)[C@@H]1NC(=O)[C@H](CCCCN)NC(=O)[C@H](Cc2ccc3ccccc3c2)NC(=O)[C@H](Cc2ccc(N)cc2)NC(=O)[C@H](Cc2ccccc2)NC(=O)[C@@H](N)CSSC[C@@H](C(=O)O)NC(=O)[C@H](Cc2ccccc2)NC1=O` [Peptide No. 5, (cyclo)H-Cys-Phe-4Aph-2Nal-Lys-Thr-Phe-Cys-OH] (H-CF[Phe(4-NH2)][2Nal]KTFC-OH; disulfide 1-8), at hSSTR2 (setting [1]), the IC50 was > 1000 nM.
For `C[C@@H]1NC(=O)[C@H](Cc2ccccc2)NC(=O)[C@@H](N)CSSC[C@@H](C(=O)O)NC(=O)[C@H](Cc2ccccc2)NC(=O)[C@H]([C@@H](C)O)NC(=O)[C@H](CCCCN)NC(=O)[C@H](Cc2c[nH]c3ccccc23)NC1=O` [Peptide No. 12] (H-CFAWKTFC-OH; disulfide 1-8), the “concentration below which it does not bind to human SSTR1” value at hSSTR1 is given as ≥ 750 nM. In addition, the “concentration below which it does not bind to human SSTR5” value on hSSTR5 was ≥ 630 nM. The “concentration below which it does not bind to human SSTR2” value on hSSTR2 is on record as ≥ 750 nM. Besides, on hSSTR4, the “selectivity in binding to SSTR4” value is given as “likewise selective”; the IC50 is ~0.84 nM and 0.84 nM. Besides, the “concentration below which it does not bind to human SSTR3” value at hSSTR3 is given as ≥ 750 nM.
For `C[C@H](c1ccc2ccccc2c1)[C@@H]1NC(=O)[C@H](Cc2ccc(O)cc2)NC(=O)[C@H](Cc2ccccc2)NC(=O)[C@H](N)CSSC[C@@H](C(=O)O)NC(=O)[C@H](Cc2ccccc2)NC(=O)[C@H]([C@@H](C)O)NC(=O)[C@H](CCCCN)NC1=O` [Peptide No. 16A, (cyclo)H-D-Cys-Phe-Tyr-threo-(2S,3R)C^βMe-2Nal-Lys-Thr-Phe-Cys-OH] (H-[dC]FY[X1]KTFC-OH; disulfide 1-8), the IC50 at hSSTR1 is > 10000 nM. Besides, at hSSTR4, the “selectivity for SSTR4 over the closest other receptor” value is given as “more than 100 times” and the IC50 came out at 3.5 ± 0.5 nM.
In the case of `C[C@H](c1ccc2ccccc2c1)[C@@H]1NC(=O)[C@H](Cc2ccc(O)cc2)NC(=O)[C@H](Cc2ccccc2)NC(=O)[C@@H](N)CSSC[C@@H](C(=O)O)NC(=O)[C@H](Cc2ccccc2)NC(=O)[C@H]([C@@H](C)O)NC(=O)[C@H](CCCCN)NC1=O` [Peptide No. 17A, (cyclo)H-Cys-Phe-Tyr-threo-(2S,3R)C^βMe-2Nal-Lys-Thr-Phe-Cys-OH] (H-CFY[X1]KTFC-OH; disulfide 1-8), at hSSTR1, the half-inhibitory concentration (IC50) is > 1000 nM. Moreover, on hSSTR4, the “selectivity for SSTR4 over the closest other receptor” value was ~100 times and the “selectivity in binding to SSTR4” value is listed as “show selectivity for binding to SSTR4”.
